Results on six compounds are retold here after patent publication US12440498B2 (priority 2020, dated 2025).

In data set [1] the test system is influenza. The settings on record: human, in vivo; cited from earlier work.
For data set [2] the following is noted: human, in vivo; cited from earlier work.
The subject of data set [3] is A/H1N1nLuc recombinant virus. Briefly: microbe, parasite or virus in culture. The format is cell-based, influenza A virus.
Data set [4] concerns A/H1N1 pdm09 (A/Lyon/969/2009 H1N1). The format is cell-based, influenza A virus.
In data set [5] the test system is A/H3N2 (A/Texas/50/2012 H3N2). The data set is classed as cell-based, influenza A virus.
Data set [6] has as its system recombinant A/H1N1 pdm09 wildtype (WT). The data set is classed as cell-based.
Data set [7] has as its system A/H1N1 virus. The data set can be described thus: microbe, parasite or virus in culture. The format is cell-based, influenza A virus.
The conditions of data set [8]: in vivo; cited from earlier work.
The test system of data set [9] is flu virus. The settings on record: human, in vivo, po; cited from earlier work.

Where two headings read alike, the source gives them in different places.

Turning to `COC(=O)OCOc1c2n(ccc1=O)N([C@@H]1c3ccccc3SCc3c1ccc(F)c3F)[C@@H]1COCCN1C2=O` [baloxavir marboxil], the “median time to cessation of viral shedding” value in data set [1] is reported as 48 h. Moreover, the “patients with mainly digestive side effects (nausea, diarrhea, etc.)” value in data set [2] is given as 4-5%.

For the compound `O=C1c2c(O)c(=O)ccn2N([C@@H]2c3ccccc3SCc3c2ccc(F)c3F)[C@@H]2COCCN12` [baloxavir, baloxavir acid], the EC50 in [3] (Influenza A virus, A549) was 0.000144 µM. Further, the “reduction of production of A/H1N1 infectious particles” value in [4] amounted to 4 log 10; in data set [6] it was 3 log 10. In data set [5], the “reduction of production of A/H3N2 infectious particles” value turned out to be 3 log 10. The “increase of IC50 relative to the initial IC50” value in data set [7] came out at 35 times. In addition, the “half-life (hepatic elimination)” value in data set [8] is 50 to 90 h.

Turning to `NC(=O)c1ncn([C@@H]2O[C@H](CO)[C@@H](O)[C@H]2O)n1` [ribavirin], the “efficacy against flu virus” value in [9] is “not effective”.

As to `NC(=O)c1nc(F)c[nH]c1=O` [favipiravir], the EC50 in data set [3] (Influenza A virus, A549) was found to be 2.49 µM.

With `CCOC(=O)C1=C[C@@H](OC(CC)CC)[C@H](NC(C)=O)[C@@H](N)C1` [oseltamivir], the “median time to cessation of viral shedding” value in data set [1] is on record as 72 h.

On to `COc1ccc([C@@H]2Sc3ccccc3N(CCN(C)C)C(=O)[C@@H]2OC(C)=O)cc1.Cl` [diltiazem], for which the EC50 in data set [3] came out at 53.8 µM; in data set [3] (Influenza A virus, A549) it was 50.1 µM. In addition, the IC50 in data set [7] (Influenza A virus, H1N1, MDCK, read-out: median inhibitory concentration (IC50)) came to 5 µM.

For orientation: EC50 means the concentration that produces a half-maximal response.
